Values of other authors as cited in patent US20200306231A1, “ORAL HYPOGLYCEMIC AGENTS AS FOOD ADDITIVES AND SUPPLEMENTS” (priority 2017, published 2020).

How the values were obtained:
[1] = in vivo
[2] = type 2 diabetes patients followed for 10 years; taking metformin compared with not taking metformin
[3] = neoadjuvant chemotherapy; type 2 diabetes patients taking metformin
[4] = type 2 diabetes
[5] = lung cancer after chemotherapy; type 2 diabetics taking metformin
[6] = ovarian cancer after chemotherapy, type 2 diabetes
[7] = another study
[8] = DPPOS
[9] = type 2 diabetes population; compared with other anti-diabetes drugs
[10] = tested on: nematodes
[11] = tested on: mouse model

SMILES | side effect known to be caused [1] | lower risk of developing any type of cancer [2] | chance of having a complete response (no residual cancer found during surgery) [3] | risk of developing colorectal cancer, greater for those not taking metformin versus those taking metformin [4] | survival greater for those taking metformin versus not taking [4] | overall survival rate [5] | progression free survival [5] | 5-year overall survival rate ([6]; metformin users) | progression free survival at 5 years ([6]; taking metformin) | risk reduction for developing prostate cancer (type 2 diabetics taking metformin compared with not taking) | overall survival rate greater, taking metformin versus not taking (type 2 diabetics who have prostate cancer) | improved survival with metformin use [7] | safety and tolerability [8] | weight loss [8] | risk of cardiovascular disease [9] | lifespan [10] | lifespan and health span [11]
COc1ccc2cc3[n+](cc2c1OC)CCc1cc2c(cc1-3)OCO2 [berberine] | constipation | – | – | – | – | – | – | – | – | – | – | – | – | – | – | – | –
CN(C)C(=N)N=C(N)N [metformin] | diarrhea | 54% | 24% | 200% | 34% | 20 months | 8.4 months | 63% | 51% | no risk reduction | 45% | 24% | safe and well tolerated | moderate but durable weight loss | decreased risk of cardiovascular disease | extends the lifespan | extends both lifespan and health span
